From PubChem BioAssay (NCI)
Values joined by “and” are separate entries in the source; they are usually repeats but may differ in a detail not shown here. Equal values may be shown once.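 1) Cells in 96-well plates. 2) Compound, 48 h, 5 concentrations. 3) Linear interpolation between surrounding doses. 4) Unreached endpoint = highest concentration. GI50 is the concentration that inhibits growth by half. TGI is the concentration that stops growth completely.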

Key:
Test in all cases: DTP human tumour cell line panel, 48 h
A498 renal = tested on: A498 renal
COLO 205 colon = tested on: COLO 205 colon
IGROV1 ovarian = tested on: IGROV1 ovarian
MALME-3M melanoma = tested on: MALME-3M melanoma
NCI-H23 lung = tested on: NCI-H23 lung
NCI-H522 lung = tested on: NCI-H522 lung
SF-268 CNS = tested on: SF-268 CNS
SNB-75 CNS = tested on: SNB-75 CNS
TK-10 renal = tested on: TK-10 renal
UO-31 renal = tested on: UO-31 renal

Row | SMILES | TGI (A498 renal) | TGI (COLO 205 colon) | TGI (IGROV1 ovarian) | TGI (MALME-3M melanoma) | TGI (NCI-H23 lung) | TGI (NCI-H522 lung) | TGI (SF-268 CNS) | TGI (SNB-75 CNS) | TGI (TK-10 renal) | TGI (UO-31 renal) | GI50 (A498 renal) | GI50 (COLO 205 colon) | GI50 (IGROV1 ovarian) | GI50 (MALME-3M melanoma) | GI50 (NCI-H23 lung) | GI50 (NCI-H522 lung) | GI50 (SF-268 CNS) | GI50 (SNB-75 CNS) | GI50 (TK-10 renal) | GI50 (UO-31 renal)
1 | c1ccc(N2N=NC3C4CC(C5c6ccccc6C45)C32)cc1 (configuration not stated) | > 100 µM | > 100 µM | > 100 µM | 69.4 µM | 75.9 µM | 50.9 µM | > 100 µM | > 100 µM | > 100 µM | 72.1 µM |  |  |  |  |  |  |  |  |  | 
2 | CNC(=O)c1cc(Oc2ccc3nc(NC(=O)Nc4cc(C(F)(F)F)cc(C(F)(F)F)c4)sc3c2)ccn1 | 2.46 µM | 2.32 µM | 3.16 µM | 2.49 µM | 2.38 µM | 2.28 µM | 2.86 µM | 2.7 µM | 3.35 µM | 2.68 µM | 1.02 µM | 0.822 µM | 1.25 µM | 0.908 µM | 0.573 µM | 0.534 µM | 1.27 µM | 1 µM | 1.67 µM | 1.26 µM
3 | CC(C)(N)C(=O)N[C@@H]1C(=O)N2[C@@H]1SC(C)(C)[C@@H]2C(=O)O | > 100 µM | > 100 µM | > 100 µM | > 100 µM | > 100 µM | > 100 µM | > 100 µM | > 100 µM | > 100 µM | > 100 µM |  |  |  |  |  |  |  |  |  | 
4 | CC/C(=C(/CC)c1ccc(O)cc1)c1ccc(O)cc1 | 25.2 µM | 19.7 µM | 52.3 µM | 25.1 µM | 23 µM | 23 µM | 20.8 µM | 6.48 µM | 37.6 µM | 21.6 µM | 12.4 µM | 6.31 µM | 12.4 µM | 5.54 µM | 5.76 µM | 5.79 µM | 5.5 µM | 2.2 µM | 14.8 µM | 6.38 µM
5 | c1cnc2nc3n(c2c1)CSC3 | > 100 µM | > 100 µM | > 100 µM | > 100 µM | > 100 µM | > 100 µM | > 100 µM | > 100 µM | > 100 µM | > 100 µM |  |  |  |  |  |  |  |  |  | 
6 | NCCCCCCCCCn1c2c(c3ccccc3c1=O)C(=O)c1ccccc1-2 | 16.4 µM | 25 µM | > 50 µM | 21.8 µM | 17 µM | 24.4 µM | 31.5 µM | 21.7 µM | 17.4 µM | 18.6 µM | 7.74 µM | 10 µM | 10.2 µM | 9.17 µM | 7.94 µM | 8.83 µM | 11.8 µM | 10.7 µM | 8.8 µM | 7.68 µM
7 | COc1c(OC)c(OC)c(-c2cc(=O)c3c(OC)c(OC)c(OC)c(OC)c3o2)c(OC)c1OC | 89.1 µM | > 100 µM | 64.2 µM | > 100 µM | 95.7 µM | 33.8 µM | > 100 µM | > 100 µM | 85.3 µM | > 100 µM |  |  |  |  |  |  |  |  |  | 
8 | COc1ccc(/C=C/C(=O)c2ccccc2)cc1OC | 38.6 µM and 32.2 µM | 31.6 µM and 34.8 µM | 49.7 µM and 43.7 µM | 35.1 µM and 38 µM | 50.1 µM and 41.3 µM | 31.5 µM and 19.6 µM | 36.7 µM and 64.9 µM | 28.9 µM and 35.1 µM | 32 µM and 27.8 µM | 27.2 µM and 27.3 µM |  |  | 15.4 µM | 18.7 µM | 15.8 µM | 4.18 µM | 19.7 µM | 16.7 µM | 13.6 µM | 
9 | [Au+].c1c[n-]cn1.c1ccc([PH+](c2ccccc2)c2ccccc2)cc1 | 34.9 µM | 4.07 µM | 13.7 µM | 4.25 µM | 25.1 µM | 2.93 µM | 28.3 µM | 33.7 µM | 6.46 µM | 19.4 µM | 17.4 µM | 1.99 µM | 2.02 µM | 1.96 µM | 5.85 µM | 1.19 µM | 3.32 µM | 15.2 µM | 2.66 µM | 8.36 µM
10 | COC(=O)c1cc2c(nc1C)-c1ccccc1OS2(=O)=O | > 100 µM | > 100 µM | > 100 µM | > 100 µM | > 100 µM | > 100 µM | > 100 µM | 35.3 µM | > 100 µM | > 100 µM |  |  |  |  |  |  |  |  |  | 
